Assay results from PubChem BioAssay (NCI).
Where “and” joins values, the source holds several entries; their conditions need not be identical. Equal values may be shown once.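 Compound exposure: 48 hours, 5 concentrations, 96-well plates. GI50 is the concentration that inhibits growth by half. TGI: total growth inhibition.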

Experiments:
Assay in all cases: inhibition of tumour cell growth, NCI panel, 48 h
U251 CNS = tested on: U251 CNS
COLO 205 colon = tested on: COLO 205 colon
MALME-3M melanoma = tested on: MALME-3M melanoma
OVCAR-4 ovarian = tested on: OVCAR-4 ovarian
HS 578T breast = tested on: HS 578T breast
HT29 colon = tested on: HT29 colon
RXF 393 renal = tested on: RXF 393 renal
NCI/ADR-RES ovarian = tested on: NCI/ADR-RES ovarian
NCI-H522 lung = tested on: NCI-H522 lung
UACC-62 melanoma = tested on: UACC-62 melanoma

| SMILES | TGI (U251 CNS) | TGI (COLO 205 colon) | TGI (MALME-3M melanoma) | TGI (OVCAR-4 ovarian) | TGI (HS 578T breast) | TGI (HT29 colon) | TGI (RXF 393 renal) | TGI (NCI/ADR-RES ovarian) | TGI (NCI-H522 lung) | TGI (UACC-62 melanoma) | GI50 (U251 CNS) | GI50 (COLO 205 colon) [µM] | GI50 (MALME-3M melanoma) | GI50 (OVCAR-4 ovarian) | GI50 (HS 578T breast) [µM] | GI50 (HT29 colon) [µM] | GI50 (RXF 393 renal) [µM] | GI50 (NCI/ADR-RES ovarian) [µM] | GI50 (NCI-H522 lung) | GI50 (UACC-62 melanoma) [µM] |
| --- | --- | --- | --- | --- | --- | --- | --- | --- | --- | --- | --- | --- | --- | --- | --- | --- | --- | --- | --- | --- |
| O=C(Nc1ccc(N=C=S)cc1Cl)c1cc(Br)cc(Br)c1O | 53.1 µM | > 100 µM | > 100 µM | > 100 µM | 69.4 µM | 38 µM | > 100 µM | 58 µM | > 100 µM | 35.2 µM | – | – | – | – | – | – | – | – | – | – |
| Nc1ncnc2c1N=C(c1ccc3c(c1)OCO3)CC(c1ccc(Cl)cc1)N2 (centres undefined) | 25.8 µM | > 100 µM | > 100 µM | 35.2 µM | 7.09 µM | > 100 µM | 13.5 µM | 41.2 µM | > 100 µM | > 100 µM | 6.19 µM | 15 | 89.1 µM | 4.58 µM | 1.07 | 17.2 | 2.51 | 5.35 | 2370 nM | 72.1 |
| Cn1c([N+](=O)[O-])cnc1C=C1C(=O)c2ccccc2C1=O | 20.7 µM | 15.9 µM | 11.6 µM | 55.4 µM | 8.71 µM | 25.3 µM | 10.3 µM | 83.9 µM | 4.37 µM | 5.75 µM | 5.8 µM | 4.83 | 3.44 µM | 6.36 µM | 2.43 | 7.29 | 2.6 | 5.34 | 1890 nM | 2.04 |
| COc1cc2c(cc1Nc1nc(N3CCc4ccccc43)c3cc[nH]c3n1)N(C(=O)CN(C)C)CC2 | 9.83 µM | 14.3 µM | 11 µM | 9.04 µM | 11.4 µM | 0.731 µM | 8.89 µM | 2.81 µM | 11.7 µM | 9.08 µM | 4.67 µM | 5.4 | 5.03 µM | 2.84 µM | 4.52 | 0.364 | 3.55 | 0.731 | 3940 nM | 4.71 |
| O=C(/C=C/C12c3ccccc3C(c3ccccc31)C1C(=O)NC(=O)C12)c1ccccn1 (centres undefined) | 2.74 µM | 3.62 µM | 5.05 µM | 11.7 µM | 23 µM | 4.56 µM | 3.12 µM | 10.1 µM | 3.37 µM | 3.1 µM | 1.4 µM | 1.88 | 2.14 µM | 2.69 µM | 3.2 | 1.86 | 1.61 | 2.81 | 1520 nM | 1.62 |
| CC1(C)OC[C@@H]([C@@]2(CO[Si](c3ccccc3)(c3ccccc3)C(C)(C)C)CC=CC(=O)O2)O1 | 25.4 µM | > 100 µM | 8.48 µM | > 100 µM | > 100 µM | > 100 µM | > 100 µM | 35.1 µM | > 100 µM | 84.5 µM | 5.94 µM | 8.69 | 2.42 µM | 16.1 µM | 9.01 | 7.97 | 9.82 | 5.64 | 5020 nM | 5.79 |
| CSC1=Nc2c(c(C)c(C)n2COC(CO)CO)C2=NC(=O)CN12 | > 100 µM | > 100 µM | > 100 µM | > 100 µM | > 100 µM | > 100 µM | > 100 µM | > 100 µM | > 100 µM | > 100 µM | > 100 µM | > 100 | > 100 µM | > 100 µM | > 100 | > 100 | > 100 | > 100 | > 100000 nM | > 100 |
| CC(C)(CO)CNC(=O)c1ccc2[nH]c(O)c(N=Nc3ccc(S(N)(=O)=O)cc3)c2c1 | > 25 µM | > 25 µM | > 25 µM | > 25 µM | > 25 µM | > 25 µM | > 25 µM | > 25 µM | > 25 µM | > 25 µM | > 25 µM | > 25 | > 25 µM | > 25 µM | > 25 | > 25 | > 25 | > 25 | > 25000 nM | > 25 |
| Cc1cc(O)c2c(c1)C(=O)C=CC2=O | 33.7 µM and 23.4 µM | 7.97 µM and > 21.2 µM | 23.2 µM and 8.39 µM | 28.8 µM and 19.5 µM | 54.6 µM and 64.3 µM | 12.3 µM and 21.3 µM | 9.57 µM and 9.17 µM | 37 µM and 47.2 µM | 8.05 µM and 3.06 µM | 18.9 µM and 25.3 µM | 14.2 µM and 5.29 µM | – | 10.2 µM and 1.86 µM | 14.5 µM and 6.75 µM | – | – | – | – | 3800 nM and 1460 nM | – |
| CC1(C)N=C(N)N=C(N)N1c1ccc(CCC(=O)Nc2ccc(S(=O)(=O)F)cc2)cc1 | > 100 µM | > 100 µM | > 100 µM | > 100 µM | > 100 µM | > 100 µM | > 100 µM | > 100 µM | > 100 µM | > 100 µM | 2.01 µM | 0.922 | 10.9 µM | > 78.5 µM | > 75.8 | 0.362 | 0.307 | 98.3 | 1260 nM | 0.388 |
| N#CC1c2ccccc2C=CN1C(=O)CCCl (centres undefined) | 32 µM | 5.65 µM | 4.01 µM | 10.7 µM | 47.3 µM | 26.2 µM | 25.9 µM | 66.3 µM | 2.92 µM | 29.7 µM | 17.6 µM | 2.48 | 2 µM | 2.79 µM | 17.4 | 11.1 | 11.8 | 23 | 1520 nM | 14.9 |
| COc1cc(CNc2nc3cc(N)cc(N)c3nc2-c2ccccc2)cc(OC)c1 | > 100 µM | 6.04 µM | 33.8 µM | 0.974 µM | > 100 µM | 44.4 µM | 58.5 µM | 33.2 µM | 23 µM | 30.7 µM | 5.08 µM | 2.38 | 4.86 µM | 0.014 µM | 8.53 | 8.17 | 6.09 | 5.47 | 2880 nM | 5.31 |
| CNC(=O)c1ncccc1Nc1nc(Nc2cc3c(cc2OC)CCCN3C(=O)CN(C)C)nc2[nH]ccc12 | 5.38 µM | 1.18 µM | 7.84 µM | 6.67 µM | 5.69 µM | 1.25 µM | 3.8 µM | 2.74 µM | 2.84 µM | 6.45 µM | 2.02 µM | 0.127 | 3.65 µM | 2.98 µM | 1.21 | 0.0491 | 0.974 | 0.724 | 638 nM | 3.07 |
